Data published in patent publication US8697738B2, “Alpha-aminoamide derivatives useful in the treatment of addictive disorders” (Newron Pharmaceuticals S.p.A., priority 2004, dated 2014).
Entries after “also recorded” stand apart in the source; their conditions may differ.

Key:
[1] = tested on: cocaine-induced hyperactivity; experiment: Cocaine interaction study in mice (cocaine-induced locomotion increase); format: in vivo, Swiss-Webster Mice; settings: 100 mg/kg ip, cocaine 20 mg/kg ip
From the text: Typically, psychostimulant addictive drugs as amphetamine and cocaine induce an increase in locomotor activity in rodents and primate. Some compounds with anti-addictive potential properties can prevent the increase in locomotor activity induced by psychostimulant drugs. (Katz J L, Kopajtic T A, Myers K A, Mitkus R J, Chider M, Behavioral effects of cocaine: interactions with D1 dopaminergic antagonists and agonists in mice and squirrel monkeys. J Pharmacol Exp Ther. 1999 October; 291(1):265-79).
The effect of test compounds is evaluated in a mice model of cocaine-induced locomotion increase.
Subjects: Swiss-Webster Mice, Male
Apparatus: Automated Photocell Chambers
Drugs: Cocaine 20 mg/kg is administered ip, test compounds dissolved in vehicle are administered ip at different doses (10-100 mg/kg) right before cocaine.
Behavioral test; Animals (8 per experimental group) received ip injection of cocaine (20 mg/kg) or saline and either the test compounds (10-100 mg/kg ip) or their vehicle and locomotor activity is recorded for 1 hour. […]
Maximal effect: The 30 min time period in which cocaine (20 mg/kg) produces the maximal activity is used to determine test compound effect. […] The AD50 (dose that attenuates cocaine-induced stimulation by 50%) is determined from the linear regression analysis.

[2] = tested on: patients with idiopathic RLS; experiment: Open label RLS study, 2 week administration in 10 patients with idiopathic RLS; format: in vivo, human
Method: In an open label study conducted on 10 patients with idiopathic RLS, 2 week administration of (S)-(+)-2-[4-(3-Fluorobenzyloxy)-benzylamino]-propanamide 100 mg/die resulted efficacious in improving RLS symptoms. Patients were included in the study if they fulfilled the minimal diagnostic criteria according to the International RLS Study Group. Patients' symptoms had to interfere with sleep onset or maintenance for at least 6 months and at least 15 nights during the last 12 weeks, and they should have IRLS 10(International Restless Legs Syndrome) score equal to or greater than 15 at baseline assessment. Physical examination, biochemical and haematological laboratory tests and electrocardiogram were performed to ensure that selection criteria were fulfilled. Polysomnography was performed for 2 nights at baseline and 2 nights at the end of treatment, in order to verify the effects of (S)-(+)-2-[4-(3-Fluorobenzyloxy)benzylamino]propanamide on sleep. Efficacy was measured through the following evaluation scales: International Restless Legs Syndrome 10 (IRLS 10), Restless Legs Syndrome Quality of Life (RLS QoL), Work Productivity and Activity Impairment Questionnaire (WPAI RLS) and Clinical Global Impression (CGI part I and CGI part II).
Ten out of 10 patients enrolled were considered eligible for the efficacy analysis: ail of them completed the planned period of treatment of 14+3 days. […] As to the main disease, it was considered severe in 70% of patients according to CGI criteria and confirmed by IRLS-10 score, with an impact on daily activity, that could be quantified (according to WPAI-RLS, and RLS-QoLQ results) in about ⅓ of the usual performances.

cocaine detoxification = settings: rats and human; cited from earlier work
smoking cessation = settings: 200 mg/day; from 17 to 30%; cited from earlier work
alcohol dependence = settings: clinical study; cited from earlier work
[3] = 100 mg/die, 2 weeks, 10 patients

Structure (SMILES): C[C@H](NCc1ccc(OCc2cccc(F)c2)cc1)C(N)=O [(S)-(+)-2-[4-(3-Fluorobenzyloxy)-benzylamino]propanamide]
- effect on cocaine-induced hyperactivity (total locomotor activity) [1]: significantly decreased
- improvement of RLS symptoms ([2]; 100 mg/die, 2 week administration, 10 patients): efficacious; also recorded: significant improvement
- adverse events [2, 3]: no adverse events
- tolerability [2, 3]: well tolerated
- CGI part II changes from previous visit: Minimally Improved ([2]; Final visit): 5 (50) N (%)
- CGI part II changes from previous visit: Much Improved ([2]; Final visit): 2 (20) N (%)
- CGI part II changes from previous visit: No change ([2]; Final visit): 1 (10) N (%)
- CGI part II changes from previous visit: Very Much Improved ([2]; Final visit): 2 (20) N (%)
- IRLS 10 Score, Impact, Mean ([2]; Final visit (baseline 4.20)): 3.00
- IRLS 10 Score, Associate Features, mean ([2]; Final visit (baseline 5.10)): 4.30
- IRLS 10 Score, Severity, mean ([2]; Final visit (baseline 7.00)): 6.00
- IRLS 10 Score, Diagnostic Features, mean ([2]; Final visit (baseline 11.20)): 8.50
- IRLS 10 Score, Total Score, mean ([2]; Final visit (baseline 27.50)): 21.80
- IRLS 10 Score, Diagnostic Features, changes ([2]; Final vs Baseline, p 0.002): −2.70
- IRLS 10 Score, Total Score, changes ([2]; Final vs Baseline, p 0.002): −5.70
- IRLS 10 Score, Impact, changes ([2]; Final vs Baseline, p 0.003): −1.20
- IRLS 10 Score, Severity, changes ([2]; Final vs Baseline, p 0.063): −1.00
- IRLS 10 Score, Associate Features, changes ([2]; Final vs Baseline, p 0.070): −0.80
- CGI part I: patients with stable disease ([2]; after 2 weeks): 40%
- CGI part II: patients with improvement of any grading ([2]; after 2 weeks): 90%
- CGI part II: patients with no changes ([2]; after 2 weeks): 10%
- WPAI-RLS item 6 impairment of daily activities ([2]; after 2 weeks (from 34% at baseline), p=0.005, FIG. 3): 22%
- Polysomnographic registration: PLM (Wake+Sleep) Index ([2]; after 2 weeks versus baseline, FIG. 4): statistically significant improvement versus baseline
- Polysomnographic registration: PLM Sleep Index ([2]; after 2 weeks versus baseline, FIG. 5): statistically significant improvement versus baseline
- Polysomnographic registration: PLM Wake Index ([2]; after 2 weeks versus baseline, FIG. 6): statistically significant improvement versus baseline
- RLS-QoLQ total score ([2]; after 2 weeks vs baseline, p=0.002, FIG. 2): significant decrease
- CGI part I: patients with improvement in disease situation ([2]; after 2 weeks, P=0,031): 60%
- IRLS-10 scale total score, result in words ([2]; after 2 weeks, p=0.002): statistically significant improvement
- safety profile ([2]; conclusion of the trial): good safety profile

Structure (SMILES): C#CCN(C)[C@H](C)Cc1ccccc1 [Selegeline, selegiline, reference compound]
- effect on cocaine-induced hyperactivity (total locomotor activity) [1]: did not reverse
- anti-reinforcing effect during cocaine detoxification (cocaine detoxification): moderate anti-reinforcing effect

Structure (SMILES): NCCNC(=O)c1ccc(Cl)cn1 [lazabemide]
- percentage of smoking cessation (smoking cessation): 30%

Structure (SMILES): CC1(C)O[C@@H]2[C@@H](CO[C@@]3(COS(N)(=O)=O)OC(C)(C)O[C@@H]23)O1 [topiramate]
- efficacy in the treatment of alcohol dependence (alcohol dependence): efficacious
